Source: paper PMC5038320, “Cryptosporidium and Toxoplasma Parasites Are Inhibited by a Benzoxaborole Targeting Leucyl-tRNA Synthetase” (Antimicrobial Agents and Chemotherapy, 2016)
pKd: −log10 of the molar value. Where two headings read alike, the source gives them in different places.

Assays:
[1] = target: T1, C. muris cytosolic leucyl-tRNA synthetase (CmLeuRS) editing domain (Cryptosporidium muris, UniProt B6AA20); assay: ITC; crystal structure ([…] Å); type: binding
T1 construct: gene CMU_041310; connective polypeptide domain (CP1) residues 254 to 541

[2] = target: T1, C. muris cytosolic leucyl-tRNA synthetase (CmLeuRS) editing domain; assay: ITC; crystal structure ([…] Å); type: binding; remark: listed apart in the source

T1 sequence (B6AA20 entry or part of it): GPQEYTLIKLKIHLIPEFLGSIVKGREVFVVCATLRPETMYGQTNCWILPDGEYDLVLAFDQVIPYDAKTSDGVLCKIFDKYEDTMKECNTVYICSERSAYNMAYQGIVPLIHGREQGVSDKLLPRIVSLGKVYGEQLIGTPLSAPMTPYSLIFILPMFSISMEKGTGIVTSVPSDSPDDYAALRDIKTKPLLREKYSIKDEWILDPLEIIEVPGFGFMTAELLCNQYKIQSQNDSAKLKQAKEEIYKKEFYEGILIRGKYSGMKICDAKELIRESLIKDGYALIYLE

CC[C@H](C)[C@H](N)C(=O)N[C@@H]1[C@H](O)[C@@H](CO)O[C@H]1n1cnc2c(N)ncnc21 [Ile2AA, 2-(L-isoleucyl)amino-2-deoxyadenosine] gave a pKd [1] of 3.67.
With CCC[C@H](N)C(=O)N[C@@H]1[C@H](O)[C@@H](CO)O[C@H]1n1cnc2c(N)ncnc21 [Nva2AA, 2-(L-norvalyl)amino-2-deoxyadenosine] the pKd [2] was 3.67.
